Target: D(2) dopamine receptor (Homo sapiens, UniProt P14416)
Test: Antagonist activity at dopamine D2 receptor
Assay type: functional

Sequence of D(2) dopamine receptor (P14416 whole entry): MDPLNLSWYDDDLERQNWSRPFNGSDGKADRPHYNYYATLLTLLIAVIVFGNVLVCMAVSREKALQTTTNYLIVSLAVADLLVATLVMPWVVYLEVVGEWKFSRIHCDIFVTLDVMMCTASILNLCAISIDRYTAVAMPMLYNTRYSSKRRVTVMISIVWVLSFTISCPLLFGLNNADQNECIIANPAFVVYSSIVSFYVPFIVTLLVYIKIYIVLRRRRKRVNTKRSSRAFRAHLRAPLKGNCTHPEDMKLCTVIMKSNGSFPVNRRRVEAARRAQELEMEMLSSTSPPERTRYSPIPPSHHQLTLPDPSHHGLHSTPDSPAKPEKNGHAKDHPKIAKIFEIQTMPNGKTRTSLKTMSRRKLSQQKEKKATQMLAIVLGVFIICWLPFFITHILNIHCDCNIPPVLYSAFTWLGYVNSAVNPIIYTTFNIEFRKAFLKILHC

SMILES	IC50 [nM]
CCN1CCC[C@H]1CNC(=O)c1cc(Cl)ccc1OC	257
CCN1CCC[C@H]1CNC(=O)c1cc(Br)ccc1OC	45.7
CCN1CCC[C@H]1CNC(=O)c1cccc(O)c1OC	316
CCN1CCC[C@H]1CNC(=O)c1c(OC)c(O)cc(I)c1OC	0.288
CCN1CCC[C@H]1CNC(=O)c1c(OC)ccc(SC)c1OC	1.1
CCc1cc(O)c(OC)c(C(=O)NC[C@@H]2CCCN2CC)c1OC	1.29
CCCCc1ccc(OC)c(C(=O)NC[C@@H]2CCCN2CC)c1OC	2.69
CCCc1ccc(OC)c(C(=O)NC[C@@H]2CCCN2CC)c1	67.6
CCN1CCC[C@H]1CNC(=O)c1c(OC)ccc(Cl)c1Cl	20
CCN1CCC[C@H]1CNC(=O)c1c(OC)ccc(Cl)c1Br	5.62
CCc1ccc(OC)c(C(=O)NC[C@@H]2CCCN2CC)c1Cl	4.17
CCN1CCC[C@H]1CNC(=O)c1c(Cl)ccc(O)c1OC	64.6
CCN1CCC[C@H]1CNC(=O)c1c(OC)ccc(O)c1OC	8.71
CCN1CCC[C@H]1CNC(=O)c1cc(F)cc(O)c1OC	363
CCN1CCC[C@H]1CNC(=O)c1cc(Cl)cc(O)c1OC	38.9
CCN1CCC[C@H]1CNC(=O)c1c(Br)c(Cl)cc(O)c1OC	57.5
CCc1c(Cl)cc(O)c(OC)c1C(=O)NC[C@@H]1CCCN1CC	12
CCN1CCC[C@H]1CNC(=O)c1cc(Br)cc(O)c1OC	8.32
CCN1CCC[C@H]1CNC(=O)c1c(Cl)c(Br)cc(O)c1OC	17

SMILES	IC50 [nM]
CCN1CCC[C@H]1CNC(=O)c1c(Br)c(Br)cc(O)c1OC	25.7
CCN1CCC[C@H]1CNC(=O)c1c(OC)c(O)cc(Br)c1OC	1.41
CCN1CCC[C@H]1CNC(=O)c1c(OC)c(O)cc(Br)c1[N+](=O)[O-]	186
CCN1CCC[C@H]1CNC(=O)c1cc(I)cc(O)c1OC	3.02
CCN1CCC[C@H]1CNC(=O)c1c(Cl)c(C)cc(O)c1OC	25.7
CCN1CCC[C@H]1CNC(=O)c1c(C)c(C)cc(O)c1OC	7.76
CCc1cc(O)c(OC)c(C(=O)NC[C@@H]2CCCN2CC)c1	2.88
CCc1cc(O)c(OC)c(C(=O)NC[C@@H]2CCCN2CC)c1F	1.51
CCc1cc(O)c(OC)c(C(=O)NC[C@@H]2CCCN2CC)c1Cl	0.912
CCc1cc(O)c(OC)c(C(=O)NC[C@@H]2CCCN2CC)c1Br	2.29
CCCc1cc(O)c(OC)c(C(=O)NC[C@@H]2CCCN2CC)c1	0.501
CCN1CCC[C@H]1CNC(=O)c1cc(OC)cc(O)c1OC	204
CCN1CCC[C@H]1CNC(=O)c1c(Br)c(OC)cc(O)c1OC	67.6
CCCc1cc(O)c(OC)c(C(=O)NC[C@@H]2CCCN2CC)c1Cl	3.24
CCN1CCC[C@H]1CNC(=O)c1c(Br)c(C)cc(O)c1OC	5.5
CCN1CCC[C@H]1CNC(=O)c1c(OC)ccc(C)c1OC	5.25
CCc1c(Br)cc(O)c(OC)c1C(=O)NC[C@@H]1CCCN1CC	17
CCc1cc(O)c(OC)c(C(=O)NC[C@@H]2CCCN2CC)c1CC	1.78
CCc1ccc(OC)c(C(=O)NC[C@@H]2CCCN2CC)c1	39.8

SMILES	IC50 [nM]
CCN1CCC[C@H]1CNC(=O)c1c(Cl)c(Cl)cc(O)c1OC	32.4
CCN1CCC[C@H]1CNC(=O)c1c(Cl)c(OC)cc(O)c1OC	70.8
CCN1CCC[C@H]1CNC(=O)c1c(Br)ccc(O)c1OC	56.2
CCN1CCC[C@H]1CNC(=O)c1c(C)c(Cl)cc(O)c1OC	11
CCN1CCC[C@H]1CNC(=O)c1c(OC)c(O)cc(Cl)c1OC	1.7
CCN1CCC[C@H]1CNC(=O)c1c(OC)ccc(Br)c1Br	7.94
CCc1ccc(OC)c(C(=O)NC[C@@H]2CCCN2CC)c1Br	11
CCN1CCC[C@H]1CNC(=O)c1c(F)c(Br)cc(O)c1OC	7.08
CCN1CCC[C@H]1CNC(=O)c1c(C)c(Br)cc(O)c1OC	11
CCN1CCC[C@H]1CNC(=O)c1cc(C)cc(O)c1OC	19.1
CCCc1cc(O)c(OC)c(C(=O)NC[C@@H]2CCCN2CC)c1C	5.01
CCCc1c(Cl)cc(O)c(OC)c1C(=O)NC[C@@H]1CCCN1CC	110
CCc1ccc(O)c(OC)c1C(=O)NC[C@@H]1CCCN1CC	123
CCCc1c(C)cc(O)c(OC)c1C(=O)NC[C@@H]1CCCN1CC	141
CCN1CCC[C@H]1CNC(=O)c1cc([N+](=O)[O-])cc(O)c1OC	3020
CCN1CCC[C@H]1CNC(=O)c1c(OC)ccc(I)c1OC	0.676
CCN1CCC[C@H]1CNC(=O)c1c(OC)cccc1OC	52.5
CCc1ccc(OC)c(C(=O)NC[C@@H]2CCCN2CC)c1OC	1.29
CCN1CCC[C@H]1CNC(=O)c1c(OC)ccc(Br)c1O	10
